Tests used:
[1] = system: cultured smooth muscle cells; assay: Co-mitogenic effect of MCP-1 with 0.5% fetal calf serum; assay type: cell-based; settings: 100 μM peptide
Protocol: Many chemokines are co-mitogenic with low concentrations of FCS, e.g., 50 ng/ml MCP-1+0.5% FCS is a mitogen for smooth muscle cells. Assays well known to the art for determination of DNA synthesis induced by any known chemokine plus a low concentration (<5%) of FCS on suitable cells (e.g., smooth muscle cells) in the presence and absence of the agent may be employed to screen agents for such inhibitory activity. See Porreca et al., J. Vasc. Res., 34, 58 (1997), the disclosure of which is incorporated by reference herein.
Peptide 3(1-12)[MCP-1] […] MCP-1 has been reported to be a weak co-mitogen with 0.5% fetal calf serum for cultured smooth muscle cells. […] (SEQ ID NO:1) is an MCP-1 receptor antagonist. The observation that peptide 3(1-12) [MCP-1]

[2] = system: TGFβ1 induced human monocyte migration; assay: Human monocyte migration, TGFβ1 induced; assay type: cell-based
Protocol: (§1) Agents may also be screened in a chemotactic assay which employs human neutrophils, eosinophils, mast cells, basophils, platelets, lymphocytes or monocytes. For monocytes, 9 mls of fresh blood are transferred to a tube containing 1 ml of 3.8% sodium citrate, and left at room temperature for 15 minutes. Five mls of this anti-coagulated blood are carefully layered over 3.5 ml Polymorphprep® (Nycomed Pharma, Oslo), and centrifuged at 500 g for 35 minutes per the manufacturer's instructions. The top band at the sample/medium interface contains monocytes. The monocytes are carefully removed with a glass pipette, and reconstituted to the original volume (5 ml). The cells are washed with PBS plus 10% fetal calf serum, and centrifuged at 400 g for 10 minutes. The washing step is repeated three times before the cells are counted. Cells are resuspended at 1×10^7 cells/ml in RPMI-1640+10% fetal calf serum (FCS). The monocytes are cultured for two days at 37° C. in a humidified atmosphere of 5% CO2.
(§2) On day 2, the cells are counted, spun down, and reconstituted to 1×10^7 cells/ml in Gey's balanced salt solution+1 mg/ml bovine serum albumin (BSA). […]

[3] = biological target: T1, Duffy Antigen Receptor for Chemokines (DARC) (Homo sapiens, UniProt Q16570); assay: DARC binding: competition with 125I-labeled MCP-1 on red blood cells
T1 sequence (Q16570 1-336): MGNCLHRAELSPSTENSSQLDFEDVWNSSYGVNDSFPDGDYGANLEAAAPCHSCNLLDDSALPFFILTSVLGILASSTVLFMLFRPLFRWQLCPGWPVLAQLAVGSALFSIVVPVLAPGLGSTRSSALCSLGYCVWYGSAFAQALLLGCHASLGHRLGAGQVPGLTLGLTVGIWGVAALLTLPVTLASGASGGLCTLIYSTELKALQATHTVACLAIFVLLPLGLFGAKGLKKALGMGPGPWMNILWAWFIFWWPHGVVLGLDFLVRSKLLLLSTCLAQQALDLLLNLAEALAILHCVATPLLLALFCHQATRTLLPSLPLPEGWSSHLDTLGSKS

T-tropic HIV isolate = assay: HIV infection of Jurkat cells, reverse transcriptase assay of culture medium; assay type: cell-based; settings: 100 μM peptide; 3 weeks in culture
Protocol: Peptides were added on day 0, one hour prior to infection of the cells with HIV isolate. The full length chemokine SDF-1α was used as a positive control.
(SEQ ID NO:1), or (iv) 100 ng/ml SDF-1, which should bind to and block all CXCR-4 receptors. After 3 weeks in culture, viral replication was assessed by a reverse transcriptase assay of the culture medium. Peptide 3(1-12)[MCP-1]
Since peptide 2(1-15)[MCP1] […] (SEQ ID NO:3) binds and inhibits an epitope used by HIV for cell entry but not by MCP-1 for signaling. To test this hypothesis, the same HIV infection assay described above was employed to test whether peptide 2(1-15)[MCP-1] (SEQ ID NO:3) inhibits HIV infection of Jurkat cells. At 100 μM, peptide 2(1-15)[MCP-1]

[4] = system: SDF-1α induced human monocyte migration; assay: Human monocyte migration, SDF-1α induced; assay type: cell-based; settings: Table 4(c); 100 μM peptide; n.s. = no statistically significant inhibition
Protocol: as §1, §2

In the case of EICADPKQKWVQ [Peptide 3], the “effect on the co-mitogenic effect of MCP-1 for cultured smooth muscle cells” value [1] is reported as “completely abolished”, the “effect on TGF-beta induced monocyte migration” value ([2]; 100 μM) is reported as “did not affect” and the “Extent of inhibition of human monocyte migration at 100 μM, TGFβ1” value ([2]; Table 4(c), 100 μM peptide, n.s. = no statistically significant inhibition) is reported as “n.s”. For the same sequence, the “DARC binding, in words” value [3] was “low μM concentration range”, the “DUFFY SELECTIVITY” value ([3]; Table 7, estimated ka for binding to red blood cells divided by average inhibitory ED50 versus each of the chemokines) was 1.00 and the “inhibition of Jurkat cell infection by HIV” value (T-tropic HIV isolate) was “effective inhibitor”. The “Extent of inhibition of human monocyte migration at 100 μM, SDF-1α” value [4] was 108%.
